# Data as given in US10717733B2, “Haloallylamine indole and azaindole derivative inhibitors of lysyl oxidases and uses thereof” (PHARMAXIS LTD., priority 2016, dated 2020).
# pIC50: −log10 of the molar value. Where a name gives a salt, the structure may show the parent alone.
# Key:
# Type in all cases: biochemical
# Bovine LOX = Bovine LOX (Bos taurus (Bovine), UniProt P33072); experiment: LOX inhibition, peroxidase-coupled Amplex Red amine oxidase assay; conditions: 30 min preincubation at 37° C., putrescine substrate
# Description: (§1) Method to Determine the Ability of Compounds of the Invention to Inhibit LOX and LOXL1-4 from Different Sources
# Lysyl oxidase (LOX) is an extracellular copper dependent enzyme which oxidizes peptidyl lysine and hydroxylysine residues in collagen and lysine residues in elastin to produce peptidyl alpha-aminoadipic-delta-semialdehydes. […] There are five LOX family members; these are LOX, LOXL1, LOXL2, LOXL3 and LOXL4. LOX and LOXL family members can be acquired as recombinant active proteins from commercial sources, or extracted from animal tissues like bovine aorta, tendons, pig skin; or prepared from cell cultures. The inhibitory effects of the compounds of the present invention were tested against the given LOX-LOXL preparation using a high-throughput coupled colorimetric method (Holt A. and Palcic M., A peroxidase-coupled continuous absorbance plate-reader assay for flavin monoamine oxidases, copper-containing amine oxidases and related enzymes. Nat. Protoc. 2006; 1: 2498-2505). The assay was developed using either 384 or 96 well format. Briefly, in a standard 384 well plate assay 25 μL of a dilution of any of the isoenzymes and orthologues in 1.2 M urea, 50 mM sodium borate buffer (pH 8.2) were added into each well in the presence of 1 μM mofegiline and 0.5 mM pargyline (to inhibit SSAO and MAO-B and MAO-A, respectively). […] of a reaction mixture containing twice the KM concentration of putrescine (Sigma Aldrich, e.g. 20 mM for LOX, or 10 mM for LOXL2 and LOXL3), 120 μM Amplex Red (Sigma Aldrich) and 1.5 U/mL horseradish peroxidase (Sigma Aldrich) prepared in 1.2 M urea, 50 mM sodium borate buffer (pH 8.2) were then added to the corresponding wells. The above volumes were doubled in the case of 96 wells plate. The fluorescence (RFU) was read every 2.5 min for 30 min at a range of temperatures from 37° to 45° C., excitation 565 nm and emission 590 (Optima; BMG labtech). The slope of the kinetics for each well was calculated using MARS data analysis software (BMG labtech) and this value was used to deduce the IC50 value (Dotmatics).
# Recombinant human MAO-B = Recombinant human MAO-B (Homo sapiens (Human), UniProt P27338); experiment: Inhibition of human recombinant MAO-B; conditions: benzylamine 100 μM
# Description: Method to Determine the Ability of Compounds of Formula I to Inhibit Human Recombinant MAO-B
# The specificity of the compounds of this invention was tested by determining their ability to inhibit MAO-B activities in vitro. Recombinant human MAO-B (0.06 mg/mL; Sigma Aldrich) was used as source of MAO-B enzyme activities. The assay was performed in a similar way as for human SSAO/VAP-1 (Example 66) except, the substrate benzylamine was used at 100 μM.
# [1] = molecular target: human recombinant SSAO/VAP-1 (Homo sapiens (Human), UniProt Q16853); experiment: Inhibition of human recombinant SSAO/VAP-1 amine oxidase activity; conditions: 30 min preincubation at 37° C., 600 μM benzylamine
# Description: Method to Determine the Ability of Compounds of Formula I to Inhibit Human Recombinant SSAO/VAP-1
# Human recombinant SSAO/VAP-1 amine oxidase activity was determined using the coupled colorimetric method as described for monoamine oxidase, copper-containing amine oxidases and related enzymes (Holt A. and Palcic M., A peroxidase-coupled continuous absorbance plate-reader assay for flavin monoamine oxidases, copper-containing amine oxidases and related enzymes. Nat Protoc 2006; 1: 2498-2505). Briefly, a cloned cDNA template corresponding to residues 34-763 of human SSAO/VAP-1, and incorporating a mouse Ig kappa (κ) signal sequence, N-terminal flag epitope tag and tobacco etch virus (TEV) cleavage site, was assembled in a mammalian expression vector (pLO-CMV) by Geneart AG. This vector containing human SSAO/VAP-1 residues was transfected into CHO-K1 glycosylation mutant cell line, Lec 8. A clone stably expressing human SSAO/VAP-1 was isolated and cultured in large scale. Active human SSAO/VAP-1 was purified and recovered using immunoaffinity chromatography. This was used as the source for SSAO/VAP-1 activity. A high-throughput colorimetric assay was developed using either 96 or 384 well format. Briefly, in a standard 96 well plate assay 50 μL of purified human SSAO/VAP-1 (0.25 μg/mL) in 0.1 M sodium phosphate buffer (pH 7.4) was added into each well. Test compounds were dissolved in DMSO and tested in a Concentration Response Curve (CRC) with 4-11 data points, typically in the micromolar or nanomolar range after incubation with human SSAO/VAP-1 for 30 min at 37° C. After 30 min incubation, 50 μL of the reaction mixture containing 600 μM benzylamine (Sigma Aldrich), 120 μM Amplex Red (Sigma Aldrich) and 1.5 U/mL horseradish peroxidase (Sigma Aldrich) prepared in 0.1 M sodium phosphate buffer (pH 7.4) were added to the corresponding well. The fluorescence unit (RFU) was read every 2.5 min for 30 min at 37° C. excitation 565 nm and emission 590 (Optima; BMG labtech). The slope of the kinetics for each well was calculated using MARS data analysis software (BMG labtech) and this value was used to deduce the IC50 value (Dotmatics).
# Human LOXL2 = Human LOXL2 (Homo sapiens (Human), UniProt Q9Y4K0); experiment: LOXL2 inhibition, peroxidase-coupled Amplex Red amine oxidase assay; conditions: 30 min preincubation at 37° C., putrescine substrate
# Description: as §1
# Lysyl oxidase (LOX) is an extracellular copper dependent enzyme which oxidizes peptidyl lysine and hydroxylysine residues in collagen and lysine residues in elastin to produce peptidyl alpha-aminoadipic-delta-semialdehydes. […] There are five LOX family members; these are LOX, LOXL1, LOXL2, LOXL3 and LOXL4. LOX and LOXL family members can be acquired as recombinant active proteins from commercial sources, or extracted from animal tissues like bovine aorta, tendons, pig skin; or prepared from cell cultures. The inhibitory effects of the compounds of the present invention were tested against the given LOX-LOXL preparation using a high-throughput coupled colorimetric method (Holt A. and Palcic M., A peroxidase-coupled continuous absorbance plate-reader assay for flavin monoamine oxidases, copper-containing amine oxidases and related enzymes. Nat. Protoc. 2006; 1: 2498-2505). The assay was developed using either 384 or 96 well format. Briefly, in a standard 384 well plate assay 25 μL of a dilution of any of the isoenzymes and orthologues in 1.2 M urea, 50 mM sodium borate buffer (pH 8.2) were added into each well in the presence of 1 μM mofegiline and 0.5 mM pargyline (to inhibit SSAO and MAO-B and MAO-A, respectively). Test compounds were dissolved in DMSO and tested in a Concentration Response Curve (CRC) with 11 data points, typically in the micromolar or nanomolar range after incubation with the enzyme for 30 min at 37° C. Twenty five L of a reaction mixture containing twice the KM concentration of putrescine (Sigma Aldrich, e.g. 20 mM for LOX, or 10 mM for LOXL2 and LOXL3), 120 μM Amplex Red (Sigma Aldrich) and 1.5 U/mL horseradish peroxidase (Sigma Aldrich) prepared in 1.2 M urea, 50 mM sodium borate buffer (pH 8.2) were then added to the corresponding wells. The above volumes were doubled in the case of 96 wells plate. The fluorescence (RFU) was read every 2.5 min for 30 min at a range of temperatures from 37° to 45° C., excitation 565 nm and emission 590 (Optima; BMG labtech). The slope of the kinetics for each well was calculated using MARS data analysis software (BMG labtech) and this value was used to deduce the IC50 value (Dotmatics).
# Sequence of Recombinant human MAO-B (P27338 whole entry): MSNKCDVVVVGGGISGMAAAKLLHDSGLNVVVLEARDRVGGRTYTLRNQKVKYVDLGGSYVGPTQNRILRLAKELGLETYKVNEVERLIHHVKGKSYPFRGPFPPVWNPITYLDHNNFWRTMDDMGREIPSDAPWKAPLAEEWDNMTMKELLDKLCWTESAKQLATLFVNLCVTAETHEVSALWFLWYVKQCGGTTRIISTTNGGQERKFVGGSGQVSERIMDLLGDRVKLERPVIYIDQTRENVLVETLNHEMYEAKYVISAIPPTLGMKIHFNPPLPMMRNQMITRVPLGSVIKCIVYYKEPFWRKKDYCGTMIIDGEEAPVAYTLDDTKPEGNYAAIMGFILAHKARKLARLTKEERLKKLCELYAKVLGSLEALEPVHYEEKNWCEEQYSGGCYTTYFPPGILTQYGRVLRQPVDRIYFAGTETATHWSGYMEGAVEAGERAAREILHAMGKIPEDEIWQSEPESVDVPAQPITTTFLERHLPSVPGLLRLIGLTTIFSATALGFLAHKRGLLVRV
# Sequence of human recombinant SSAO/VAP-1 (Q16853 34-763): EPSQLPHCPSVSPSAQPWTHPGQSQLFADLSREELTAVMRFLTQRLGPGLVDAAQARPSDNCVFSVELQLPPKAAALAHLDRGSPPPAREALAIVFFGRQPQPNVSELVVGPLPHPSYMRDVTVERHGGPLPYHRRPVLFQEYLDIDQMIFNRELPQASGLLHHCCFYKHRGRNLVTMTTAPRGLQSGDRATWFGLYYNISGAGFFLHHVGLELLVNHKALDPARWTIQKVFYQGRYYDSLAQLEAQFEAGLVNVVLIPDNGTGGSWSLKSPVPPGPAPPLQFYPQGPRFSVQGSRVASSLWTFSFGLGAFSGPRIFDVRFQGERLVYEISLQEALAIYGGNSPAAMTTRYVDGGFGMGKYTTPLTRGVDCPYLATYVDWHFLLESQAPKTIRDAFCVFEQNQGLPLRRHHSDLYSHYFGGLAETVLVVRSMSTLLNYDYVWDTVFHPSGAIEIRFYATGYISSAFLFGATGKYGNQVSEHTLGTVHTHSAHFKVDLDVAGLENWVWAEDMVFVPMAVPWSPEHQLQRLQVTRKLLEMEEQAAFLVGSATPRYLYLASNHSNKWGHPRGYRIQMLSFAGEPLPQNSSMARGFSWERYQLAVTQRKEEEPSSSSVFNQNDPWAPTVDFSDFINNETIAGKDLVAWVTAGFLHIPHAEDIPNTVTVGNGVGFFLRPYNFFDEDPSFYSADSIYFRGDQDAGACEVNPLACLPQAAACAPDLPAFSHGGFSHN
# Sequence of Bovine LOX (P33072 170-418): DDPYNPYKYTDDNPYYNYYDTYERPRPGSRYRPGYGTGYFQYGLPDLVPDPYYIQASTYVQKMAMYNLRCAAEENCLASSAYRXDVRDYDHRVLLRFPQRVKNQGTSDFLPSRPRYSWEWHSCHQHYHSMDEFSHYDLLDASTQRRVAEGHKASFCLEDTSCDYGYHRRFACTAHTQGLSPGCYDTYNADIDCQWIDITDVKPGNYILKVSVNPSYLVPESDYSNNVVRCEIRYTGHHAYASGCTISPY
# Sequence of Human LOXL2 (Q9Y4K0 26-774): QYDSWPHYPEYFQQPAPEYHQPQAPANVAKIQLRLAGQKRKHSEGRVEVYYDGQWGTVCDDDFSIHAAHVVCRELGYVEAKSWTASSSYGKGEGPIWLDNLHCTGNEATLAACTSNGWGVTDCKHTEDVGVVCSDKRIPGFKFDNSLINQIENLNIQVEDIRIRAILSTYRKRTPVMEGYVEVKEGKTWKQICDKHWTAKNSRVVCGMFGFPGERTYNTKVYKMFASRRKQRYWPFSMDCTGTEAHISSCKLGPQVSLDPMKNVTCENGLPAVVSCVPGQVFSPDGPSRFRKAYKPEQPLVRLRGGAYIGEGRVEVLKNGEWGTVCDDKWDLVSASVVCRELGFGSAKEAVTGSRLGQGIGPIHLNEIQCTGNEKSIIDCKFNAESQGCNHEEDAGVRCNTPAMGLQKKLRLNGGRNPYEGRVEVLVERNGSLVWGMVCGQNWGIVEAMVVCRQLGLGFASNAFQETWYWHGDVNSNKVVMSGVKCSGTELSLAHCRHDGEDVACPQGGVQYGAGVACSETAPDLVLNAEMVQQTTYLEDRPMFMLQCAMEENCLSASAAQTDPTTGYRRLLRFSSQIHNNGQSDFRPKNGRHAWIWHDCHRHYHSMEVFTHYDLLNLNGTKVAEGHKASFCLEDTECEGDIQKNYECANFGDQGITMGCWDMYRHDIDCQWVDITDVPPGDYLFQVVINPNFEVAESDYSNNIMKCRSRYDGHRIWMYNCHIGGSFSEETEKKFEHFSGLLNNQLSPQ
Structure (SMILES),pIC50 (Bovine LOX),pIC50 (Recombinant human MAO-B),pIC50 [1],pIC50 (Human LOXL2)
"Cc1c(-c2cccc(S(C)(=O)=O)c2)c2cc(C(=O)O)ccc2n1C/C(F)=C/CN [Compound 14, (Z)-1-(4-amino-2-fluorobut-2-en-1-yl)-2-methyl-3-(3-(methylsulfonyl)phenyl)-1H-indole-5-carboxylic acid]",< 6.52,< 5.52,< 5.52,> 6.52
"Cc1c(-c2cccc(S(=O)(=O)N(C)C)c2)c2cccc(C(=O)N(C)C)c2n1C/C(F)=C/CN [Compound 47, (Z)-1-(4-amino-2-fluorobut-2-en-1-yl)-3-(3-(N,N-dimethylsulfamoyl)phenyl)-N,N,2-trimethyl-1H-indole-7-carboxamide]",< 6.52,< 5.52,< 5.52,> 6.52
"Cc1c(-c2cncc(S(=O)(=O)N(C)C)c2)c2cc(F)ccc2n1C/C(F)=C/CN [Compound 71, (Z)-5-(1-(4-amino-2-fluorobut-2-en-1-yl)-5-fluoro-2-methyl-1H-indol-3-yl)-N,N-dimethylpyridine-3-sulfonamide]",< 6.52,< 5.52,< 5.52,> 6.52
"Cc1c(-c2cccc(S(=O)(=O)N(C)C)c2)c2cnccc2n1C/C(F)=C/CN [Compound 26, (Z)-3-(1-(4-amino-2-fluorobut-2-en-1-yl)-2-methyl-1H-pyrrolo[3,2-c]pyridin-3-yl)-N,N-dimethylbenzenesulfonamide Dihydrochloride]",< 6.52,< 5.52,< 5.52,> 6.52
"Cc1c(-c2cncc(S(=O)(=O)N(C)C)c2)c2ncc(Cl)cc2n1C/C(F)=C/CN [Compound 72, (Z)-5-(1-(4-amino-2-fluorobut-2-en-1-yl)-6-chloro-2-methyl-1H-pyrrolo[3,2-b]pyridin-3-yl)-N,N-dimethylpyridine-3-sulfonamide]",< 6.52,< 5.52,< 5.52,> 6.52
"Cc1c(-c2cncc(S(=O)(=O)N(C)C)c2)c2cc(C(=O)N(C)C)ccc2n1C/C(F)=C/CN [Compound 41, (Z)-1-(4-amino-2-fluorobut-2-en-1-yl)-3-(5-(N,N-dimethylsulfamoyl)pyridin-3-yl)-N,N,2-trimethyl-1H-indole-5-carboxamide]",< 6.52,< 5.52,< 5.52,> 6.52
"Cc1c(-c2cncc(S(=O)(=O)N(C)C)c2)c2cccc(Cl)c2n1C/C(F)=C/CN [Compound 74, (Z)-5-(1-(4-amino-2-fluorobut-2-en-1-yl)-7-chloro-2-methyl-1H-indol-3-yl)-N,N-dimethylpyridine-3-sulfonamide]",< 6.52,< 5.52,< 5.52,> 6.52
"Cc1c(-c2ccncc2)c2cc(S(=O)(=O)N(C)C)ccc2n1C/C(F)=C/CN [Compound 81, (Z)-1-(4-amino-2-fluorobut-2-en-1-yl)-N,N,2-trimethyl-3-(pyridin-4-yl)-1H-indole-5-sulfonamide]",< 6.52,< 5.52,< 5.52,> 6.52
"Cc1c(-c2cccc(C(=O)O)c2)c2cc(S(=O)(=O)N(C)C)ccc2n1C/C(F)=C/CN [Compound 34, (Z)-3-(1-(4-amino-2-fluorobut-2-en-1-yl)-5-(N,N-dimethylsulfamoyl)-2-methyl-1H-indol-3-yl)benzoic acid]",< 6.52,< 5.52,< 5.52,> 6.52
"Cc1c(-c2cccc(S(=O)(=O)C(F)(F)F)c2)c2cc(C(=O)N(C)C)ccc2n1C/C(F)=C/CN [Compound 57, (Z)-1-(4-amino-2-fluorobut-2-en-1-yl)-N,N,2-trimethyl-3-(3-((trifluoromethyl)sulfonyl)phenyl)-1H-indole-5-carboxamide]",< 6.52,< 5.52,< 5.52,> 6.52
